{
  "source": "patent US20240082212A1",
  "about": "“USE OF MDMA FOR TREATMENT OF STRESS-RELATED DISORDERS” (priority 2022, published 2024)",
  "key": {"[1]": {"experiment": "Rat plasma pharmacokinetics after cumulative (QID) SC injections", "details": "QID SC; for AUC(0-t) / half-life: CD (Sprague Dawley); for half-life: T1/2, male rat plasma"}, "C57BL/6J mice": {"test_system": "C57BL/6J mice", "experiment": "Head twitch response (HTR)", "type": "in vivo, mouse", "details": "30 minutes after injection", "in_short": "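Male C57BL/6J mice with head-mounted magnets were given vehicle or test drug IP (0.1–10 mg/kg, salt-based dose, in saline; n=5-6/group). Head twitches were recorded by magnetometer coil for 30 minutes immediately after injection and classified by ResNet-50 features with SVM; treatments at least seven days apart.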"}, "CD (Sprague Dawley) rats": {"test_system": "CD (Sprague Dawley) rats", "experiment": "Rat telemetry: heart rate, blood pressure, body temperature, activity after cumulative SC dosing", "type": "in vivo", "description": "Methods. A total of 42 adult male CD® (Sprague Dawley) rats (Charles River Laboratories) were surgically implanted with DSI radiotelemetry devices by personnel at Charles River Laboratories Raleigh, NC, per their test site SOPs. Telemetry devices supported continuous recording of temperature, activity, blood pressure and heart rate. Telemeterized rats were shipped to the Charles River Laboratories testing facility (Mattawan, MI) and acclimated to the environment for at least 1 week prior to experimentation. Animals were pair-housed in solid bottom cages with nonaromatic bedding. On the dosing day, animals were singly housed and then returned to the paired cohort following the dosing/telemetry recording phase. Diet (Lab Diet® Certified Rodent Diet #5CR4) and tap water via an automatic water system were available ad libitum, except during designated procedures. Temperature and humidity were maintained according to the Testing Facility SOP. Animals were randomized into treatment groups using a standard, by weight, measured value randomization procedure. Body weight was determined for each rat prior to dosing.\nAs illustrated in the Table, a total of 36 rats were included in the study. The vehicle and 2 test article doses were administered in a volume of 1 mL/kg to each of 3 groups of n=12 telemeterized rats via subcutaneous injection four times on a given day, followed by neurobehavioral evaluations. This series was repeated 3 times on study. Each group received all 3 dose levels of the applicable test or control article in ascending order with a 1-week washout between dose levels.\nMortality/cage side clinical observations were conducted for all study animals at least twice daily beginning upon receipt through termination, except on days of receipt and termination where frequency was at least once daily. Detailed clinical observations were conducted for all study animals prior to each of the four cumulative doses in a series. Individual body weights were conducted for all study animals at transfer, prior to randomization, on the day of dosing on each of the 3 cycles of dosing. The body weights recorded at transfer and prior to randomization are not reported but are maintained in the study file. Veterinary care was available throughout the course of the study, and animals were examined by the veterinary staff as needed based on clinical signs or other changes. All animals were provided with HydroGel the night prior to their respective dosing days to potentially mitigate any animal welfare issues related to fluid loss/dehydration.\nTelemetry monitoring was conducted for all animals 2 hours prior to dosing and through to 7.5 hours following the last (4th) cumulative dose of each series, which included continuous data collection of body temperature, activity, heart rate, and blood pressure (systolic, diastolic, and mean arterial) using telemetry.\nThe total period of time over which the statistical analyses were conducted encompassed the entire dosing period for all animals (i.e., Dose 1 through 7.5 hour post-4th dose) in an effort to draw conclusions regarding the effects of the dosing procedure and cumulative changes by allowing comparisons between the cumulative dosing periods. The following statistical analyses were performed for each analysis segment.\nAll time-series data comparisons conducted via statistical analysis are relative to the control treatment and are based on the LSMean values. Additionally, the change values used for the statistical analysis were calculated using a baseline of the 2 hours of pre-dose data, prior to the first compound injection of the series. The raw change values were analyzed."}, "[2]": {"experiment": "Rat brain monoamine and metabolite concentrations 1 week after cumulative SC dosing", "details": "cumulative SC, 5 mg/kg/injection; 1 week after dosing; 5 mg/kg"}, "[3]": {"details": "male rat plasma, parent analyte, total 5 mg/kg/day"}, "[4]": {"details": "male rat plasma, parent analyte, total 10 mg/kg/day"}, "[5]": {"details": "male rat plasma, parent analyte, total 20 mg/kg/day"}, "[6]": {"details": "racemic MDMA 20 mg/kg/day, S-MDMA 10 mg/kg/day, approximate"}, "[7]": {"details": "telemetry, cumulative SC dosing, dose groups stated in the value"}},
  "note": "“Also recorded” adds a separate entry of the source.",
  "data": [
    {"smiles": "CNC(C)Cc1ccc2c(c1)OCO2", "note": "(single isomer, unassigned) [S-MDMA, S(+)-MDMA]", "values": [
      {"measurement": "dose dependence of Cmax and AUC0-27 hr", "setting": "[1]; from 5 to 10 mg/kg/day S-MDMA", "result": "approximately dose proportional manner"},
      {"measurement": "dose dependence of Cmax and AUC0-27 hr", "setting": "[1]; from 5 to 20 mg/kg/day S-MDMA", "result": "greater than dose proportional manner"},
      {"measurement": "Cmax", "setting": "[1]; male rat plasma, parent analyte (total MDMA after Rac-MDMA), total 10 mg/kg/day of the test article", "result": 1220, "unit": "ng/mL"},
      {"measurement": "Cmax", "setting": "[1]; male rat plasma, parent analyte (total MDMA after Rac-MDMA), total 20 mg/kg/day of the test article", "result": 2560, "unit": "ng/mL"},
      {"measurement": "AUC0-27 hr/Dose", "setting": "[1]; [3]", "result": "302 *kg*ng/mL/mg"},
      {"measurement": "Cmax/Dose", "setting": "[1]; [3]", "result": 89.3, "unit": "kg·ng/mL/mg"},
      {"measurement": "Tlast", "setting": "[1]; [3]", "result": 7, "unit": "h"},
      {"measurement": "AUC0-27 hr", "setting": "[1]; [4]", "result": 4130, "unit": "ng·h/mL"},
      {"measurement": "AUC0-27 hr/Dose", "setting": "[1]; [4]", "result": "413 *kg*ng/mL/mg"},
      {"measurement": "AUCTlast", "setting": "[1]; [4]", "result": 4030, "unit": "ng·h/mL"},
      {"measurement": "Cmax/Dose", "setting": "[1]; [4]", "result": 122, "unit": "kg·ng/mL/mg"},
      {"measurement": "T1/2", "setting": "[1]; [4]", "result": 1.15, "unit": "h"},
      {"measurement": "Tlast", "setting": "[1]; [4]", "result": 11, "unit": "h"},
      {"measurement": "Tmax", "setting": "[1]; male rat plasma, parent analyte, total 10 mg/kg/day, time after 1st injection", "result": 3.5, "unit": "h"},
      {"measurement": "AUC0-27 hr", "setting": "[1]; [5]", "result": 15000, "unit": "ng·h/mL"},
      {"measurement": "AUC0-27 hr/Dose", "setting": "[1]; [5]", "result": "748 *kg*ng/mL/mg"},
      {"measurement": "AUCTlast", "setting": "[1]; [5]", "result": 15000, "unit": "ng·h/mL"},
      {"measurement": "Cmax/Dose", "setting": "[1]; [5]", "result": 128, "unit": "kg·ng/mL/mg"},
      {"measurement": "Tlast", "setting": "[1]; [5]", "result": 27, "unit": "h"},
      {"measurement": "AUC(0-t)", "setting": "[1]; male, rat, plasma, sc, 5 mg/kg/day, AUC0-27 hr, male rat plasma, parent analyte, total 5 mg/kg/day", "result": 1510, "unit": "ng·h/mL"},
      {"measurement": "AUC(0-t)", "setting": "[1]; male, rat, plasma, sc, 5 mg/kg/day, AUCTlast, male rat plasma, parent analyte, total 5 mg/kg/day", "result": 1490, "unit": "ng·h/mL"},
      {"measurement": "half-life", "setting": "[1]; male, rat, plasma, sc, 5 mg/kg/day, parent analyte, total 5 mg/kg/day", "result": 45.2, "unit": "min"},
      {"measurement": "half-life", "setting": "[1]; male, rat, plasma, sc, 20 mg/kg/day, parent analyte, total 20 mg/kg/day", "result": 190, "unit": "min"},
      {"measurement": "Cmax", "setting": "[1]; male, Sprague-Dawley (CD), rat, plasma, sc, 5 mg/kg/day, Cmax, male rat plasma, parent analyte, total 5 mg/kg/day of the test article", "result": 447, "unit": "ng/mL"},
      {"measurement": "head twitch response (HTR) compared to control (vehicle)", "setting": "C57BL/6J mice; 3 mg/kg IP", "result": "reduction of HTR"},
      {"measurement": "head twitch response (HTR) compared to control (vehicle)", "setting": "C57BL/6J mice; 10 mg/kg IP", "result": "reduction of HTR"},
      {"measurement": "hemodynamic parameters (systolic/diastolic/mean arterial blood pressures and heart rate)", "setting": "CD (Sprague Dawley) rats; 4 hourly SC injections, cumulative doses 5, 10, or 20 mg/kg/day", "result": "dose-dependent blood pressure-increasing effects"},
      {"measurement": "period of significantly decreased body temperature compared to R-MDMA (10 mg/kg/day)", "setting": "CD (Sprague Dawley) rats; S-MDMA 10 mg/kg/day, approximate", "result": "0.5-1 hours post initiation of dosing"},
      {"measurement": "body temperature response", "setting": "CD (Sprague Dawley) rats; S-MDMA 5, 10 mg/kg/day, racemic-MDMA 10, 20 mg/kg/day, 4 hourly SC injections", "result": "hyperthermic response"},
      {"measurement": "activity (implanted telemetry devices)", "setting": "CD (Sprague Dawley) rats; all cumulative doses (5, 10, or 20 mg/kg/day)", "result": "Activity-increasing effects"},
      {"measurement": "blood pressure increase [mean arterial pressure]", "setting": "CD (Sprague Dawley) rats; maximum change, R-MDMA and racemic MDMA 10, 20 mg/kg/day, S-MDMA 5, 10 mg/kg/day, 4 hourly SC injections", "result": "up to +36%"},
      {"measurement": "peak body temperatures", "setting": "CD (Sprague Dawley) rats; overall mean magnitude of change, 4 hourly SC injections", "result": 39.5, "unit": "°C"},
      {"measurement": "period of significantly increased body temperature compared to R-MDMA (10 mg/kg/day)", "setting": "CD (Sprague Dawley) rats; [6]", "result": "3.5-4 hours post initiation of dosing"},
      {"measurement": "period of significantly increased heart rate compared to R-MDMA (10 mg/kg/day)", "setting": "CD (Sprague Dawley) rats; [6]", "result": "5-10 hours post initiation of dosing"},
      {"measurement": "period of significantly increased mean arterial blood pressure compared to R-MDMA (10 mg/kg/day)", "setting": "CD (Sprague Dawley) rats; [6]", "result": "1.5-3 hours post initiation of dosing"},
      {"measurement": "period of significantly increased systolic blood pressure compared to R-MDMA (10 mg/kg/day)", "setting": "CD (Sprague Dawley) rats; [6]", "result": "1.5-3 hours post initiation of dosing"},
      {"measurement": "Rank Order Blood Pressures (Systolic, Diastolic, and Mean Arterial) Effects", "setting": "CD (Sprague Dawley) rats; [7]", "result": "R-MDMA (10 mg/kg/day) < S-MDMA (5 mg/kg/day) < Rac.-MDMA (10 mg/kg/day); also recorded: R-MDMA (20 mg/kg/day) < S-MDMA (10 mg/kg/day) < Rac-MDMA (20 mg/kg/day); also recorded: S-MDMA (0 mg/kg/day) < S-MDMA (5 mg/kg/day) < S-MDMA (10 mg/kg/day); also recorded: R-MDMA (10 mg/kg/day) < S-MDMA (10 mg/kg/day) < Rac-MDMA (20 mg/kg/day)"},
      {"measurement": "Rank Order Body Temperature Effects", "setting": "CD (Sprague Dawley) rats; [7]", "result": "R-MDMA (10 mg/kg/day) < S-MDMA (5 mg/kg/day) < Rac.-MDMA (10 mg/kg/day); also recorded: R-MDMA (20 mg/kg/day) < S-MDMA (10 mg/kg/day) < Rac-MDMA (20 mg/kg/day); also recorded: S-MDMA (0 mg/kg/day) < S-MDMA (5 mg/kg/day) < S-MDMA (10 mg/kg/day); also recorded: R-MDMA (10 mg/kg/day) < S-MDMA (10 mg/kg/day) < Rac-MDMA (20 mg/kg/day)"},
      {"measurement": "Rank Order General Activity Effects", "setting": "CD (Sprague Dawley) rats; [7]", "result": "R-MDMA (10 mg/kg/day) < S-MDMA (5 mg/kg/day) < Rac.-MDMA (10 mg/kg/day); also recorded: R-MDMA (20 mg/kg/day) < S-MDMA (10 mg/kg/day) < Rac-MDMA (20 mg/kg/day); also recorded: S-MDMA (0 mg/kg/day) < S-MDMA (5 mg/kg/day) < S-MDMA (10 mg/kg/day); also recorded: R-MDMA (10 mg/kg/day) < S-MDMA (10 mg/kg/day) < Rac-MDMA (20 mg/kg/day)"},
      {"measurement": "Rank Order Heart Rate Measurement Effects", "setting": "CD (Sprague Dawley) rats; [7]", "result": "R-MDMA (10 mg/kg/day) < S-MDMA (5 mg/kg/day) < Rac.-MDMA (10 mg/kg/day); also recorded: R-MDMA (20 mg/kg/day) < S-MDMA (10 mg/kg/day) < Rac-MDMA (20 mg/kg/day); also recorded: S-MDMA (0 mg/kg/day) < S-MDMA (5 mg/kg/day) < S-MDMA (10 mg/kg/day); also recorded: R-MDMA (10 mg/kg/day) < S-MDMA (10 mg/kg/day) < Rac-MDMA (20 mg/kg/day)"},
      {"measurement": "frontal cortex 5-HT (serotonin) compared to vehicle", "setting": "[2]", "result": "significantly decreased frontal cortex 5-HT concentrations"}
    ]}
  ]
}
